Converted amounts (≈) assume the structure as drawn. The source made the active and inactive calls. The rule behind the calls is not given here.
Columns and labels:
Escherichia coli [1] = test: Anti-bacterial activity against Escherichia coli ATCC 25922 assessed as growth inhibition by measuring optical density measured at 2 time of MIC in presence of 1/2 times of MIC of norfloxacin by Checkerboard assay (reference value: 0.128); assay type: functional
Escherichia coli [2] = test: Reduction of biofilm virulent factors in Escherichia coli ATCC 25922 assessed as decrease in extracellular polymeric substances (EPS) by measuring optical density at 490 nm at 4 times of MIC concentration by congo red binding assay (reference value: 0.028 to 0.031); assay type: functional
Acinetobacter baumannii = test: Anti-bacterial activity against Acinetobacter baumannii assessed as growth inhibition by measuring optical density measured at 2 time of MIC in presence of 1/2 times of MIC of norfloxacin by Checkerboard assay (reference value: 0.155); assay type: functional
Cell membrane = test: Induction of physical destruction of cell membrane in Acinetobacter baumannii assessed as leakage of nucleic acid by measuring absorbance of 260 nm at 1/4 to 8 times of MIC concentration; assay type: cell membranes
[3] = Hemolysis in human RBC assessed as hemolysis rate at effective bactericidal concentration for 3 hrs; assay type: toxicity, cell-based, Erythrocyte; conditions: red blood cells, read-out: Activity
Escherichia coli [4] = test: Induction of intracellular ROS accumulation in Escherichia coli ATCC 25922 assessed as fluorescence intensity at 1/4 to 2 times of MIC by DCFH-DA staining based assay; assay type: functional, organism-based
Staphylococcus aureus = test: Anti-bacterial activity against methicillin-resistant Staphylococcus aureus ATCC 43300 assessed as inhibition of bacterial growth; assay type: functional; conditions: Staphylococcus aureus, ATCC 43300; read-out: MIC

Q: Which OD (Escherichia coli [1]) does the source give for CCCCc1nc(Cl)c(C2NC(=O)NC(CN3CCN(C(=O)/C(=N/OC)c4csc(N)n4)CC3)=C2C(=O)OCC)[nH]1 (configuration not stated) here?
A: The OD was 0.057.

Q: What about the OD (Escherichia coli [2]) of the same compound?
A: Its OD is 0.061.

Q: And the OD (Acinetobacter baumannii)?
A: Its OD is 0.05.

Q: And the Activity (Cell membrane)?
A: Its Activity is “Active”.

Q: What about the hemolysis at 3 h [3] of the same compound?
A: Its hemolysis at 3 h is under 5%.

Q: What about the Activity (Escherichia coli [4]) of the same compound?
A: Its Activity is “Active”.

Q: What about the MIC (Staphylococcus aureus) of the same compound?
A: Its MIC is 13 µM (≈ 7.91 µg/mL).

Source: ChEMBL document CHEMBL5505979, “Novel aminothiazoximone-corbelled ethoxycarbonylpyrimidones with antibiofilm activity to conquer Gram-negative bacteria through potential multitargeting effects” (Eur J Med Chem, 2024)
